According to patent US10160812B2, “Bispecific HER2 antibodies” (MedImmune, LLC, priority 2014, dated 2018):

Assays:
SKBR-3 = assay: In vitro cytotoxic activity (Cell Titer Glo); assay type: cell-based, human; conditions: SKBR-3, 3 to 4 days; read-out: In vitro potency (EC50 in pM)
Protocol: (§3) A panel of human cancer cell lines expressing various levels of HER2 was used to evaluate the cytotoxic activity of bispecific ADC (Table 5 in Example 1). Briefly, cells were harvested, resuspended, and plated in serum-containing culture media at a density of 5,000 to 20,000 per well (depending on the growth kinetics of each cell line) of 96-well plates in a volume of 100 μL. A 2× concentration of each dose of antibody or ADC to be tested was prepared by diluting the test articles in culture medium. One hundred microliters of each test article was added to cells in triplicate such that the final dose curve ranged from 5 nM down to 0.08 pM in a stepwise 1:4 serial dilution series. The treated cells were incubated at 37° C./5% CO2 for 3 to 4 days, depending on the growth kinetics of each particular cell line. Cell viability was determined using Cell Titer Glo according to manufacturer's instructions. Data are analyzed by the GraphPad Prism software and presented as percent growth inhibition relative to the untreated control. EC50 values were determined using Sigmoidal non-linear regression analysis with GraphPad Prism software and were summarized in Table 6.

SKOV-3 = assay: In vitro cytotoxic activity (Cell Titer Glo); assay type: cell-based, human; conditions: SKOV-3, 3 to 4 days; read-out: In vitro potency (EC50 in pM)
Protocol: as §3

MDA-MB-468 = assay: In vitro cytotoxic activity (Cell Titer Glo); assay type: cell-based, human; conditions: MDA-MB-468, 3 to 4 days
Protocol: Briefly, cells were harvested, resuspended, and plated in serum-containing culture media at a density of 5,000 to 20,000 per well (depending on the growth kinetics of each cell line) of 96-well plates in a volume of 100 μL. A 2× concentration of each dose of antibody or ADC to be tested was prepared by diluting the test articles in culture medium. One hundred microliters of each test article was added to cells in triplicate such that the final dose curve ranged from 5 nM down to 0.08 pM in a stepwise 1:4 serial dilution series. The treated cells were incubated at 37° C./5% CO2 for 3 to 4 days, depending on the growth kinetics of each particular cell line. Cell viability was determined using Cell Titer Glo according to manufacturer's instructions. Data are analyzed by the GraphPad Prism software and presented as percent growth inhibition relative to the untreated control.

MDA-MB-361 model = assay: CBX xenograft tumor model; assay type: in vivo, Athymic nude mice; conditions: MDA-MB-361 CBX, 3 mg/kg
Protocol: All mouse experiments were carried out in compliance with the guidelines published by the Association for Assessment and Accreditation of Laboratory Animal Care (AAALAC) and protocols approved by the MedImmune Institutional Animal Care and Use Committee. Athymic nude mice between 4-8 weeks of age were used in the studies. In subcutaneous CBX models, animals were injected unilaterally on the right flank with tumor cells harvested from culture at a specific passage lot. In orthotopic CBX models, xenografts were established by injecting 5×10^6 cells per mouse (suspended in 50% matrigel) into the mammary fat pad on the right flank of animals. In PDX models, animals are implanted unilaterally on the flank with tumor fragments harvested from host animals each implanted from a specific passage lot. Pre-study tumor volumes were recorded for each experiment beginning approximately one week prior to its estimated start date. When tumors reach the appropriate tumor volume initiation (TVI) range (typically 150-250 mm^3), animals are randomized into treatment and control groups and dosing initiated. […] Animals were observed daily and tumor dimensions and body weights were measured and recorded twice weekly. Tumor volumes are calculated using the following formula: tumor volume=π÷6 (length×width^2). […]

JIMT-1 model = assay: CBX orthotopic tumor model (T-DM1 non-responder); assay type: in vivo, Athymic nude mice; conditions: JIMT-1 orthotopic CBX; Bs2-4T at 3 mg/kg
Protocol: All mouse experiments were carried out in compliance with the guidelines published by the Association for Assessment and Accreditation of Laboratory Animal Care (AAALAC) and protocols approved by the MedImmune Institutional Animal Care and Use Committee. Athymic nude mice between 4-8 weeks of age were used in the studies. In subcutaneous CBX models, animals were injected unilaterally on the right flank with tumor cells harvested from culture at a specific passage lot. […] In PDX models, animals are implanted unilaterally on the flank with tumor fragments harvested from host animals each implanted from a specific passage lot. Pre-study tumor volumes were recorded for each experiment beginning approximately one week prior to its estimated start date. […] Animals were dosed once weekly unless otherwise specified with test articles via intravenous or intraperitoneal injection. Animals were observed daily and tumor dimensions and body weights were measured and recorded twice weekly.

mouse Her2 [1] = biological target: T1, mouse Her2 (Mus musculus, UniProt P70424); assay: ProteOn SPR binding of 39S to captured Mouse Her2; conditions: Mouse Her2 control
Source text: The variant nomenclature denotes types of variants (KO/KI) and the swapped regions with amino acid numbering. Amino acid positions were denoted basing on the numbering scheme of mature human HER2 sequences without its signal peptide. The expression levels of all variants were monitored by an anti-His polyclonal antibody. The binding profiles of 39S to these variants were characterized using a SPR based instrument ProteOn™ by capturing variants on sensor surfaces using anti-human and mouse Her2 polyclonal antibodies.
The binding characteristics of 39S to chimeric human/mouse variants were studied using a ProteOn™ XPR36 instrument (BioRad). Standard amine coupling was used to immobilize an anti-human or mouse Her2 polyclonal antibody (R&D System) in 10 mM sodium acetate (pH 5.0) to the surface of a GLC biosensor chip at ˜5000 resonance units (RU) for each channel. The chimeric proteins in cell culture supernatant were injected and captured by anti-human or mouse polyclonal antibodies onto the GLC surface with a ˜200RU response. Anti-HER2 mAb 39S was diluted in phosphate-buffered saline (PBS) (pH 7.4) with 0.005% Tween-20 from 10 nM to 0.625 nM (1:2 dilution), and injected at 100 μL/min for 180 sec with a 600-second dissociation time. Expression levels of chimeric variants were monitored by flowing anti-His polyclonal antibody (MedImmune) under the same conditions as injecting 39S. […]
Target sequence in this assay (P70424 23-1256): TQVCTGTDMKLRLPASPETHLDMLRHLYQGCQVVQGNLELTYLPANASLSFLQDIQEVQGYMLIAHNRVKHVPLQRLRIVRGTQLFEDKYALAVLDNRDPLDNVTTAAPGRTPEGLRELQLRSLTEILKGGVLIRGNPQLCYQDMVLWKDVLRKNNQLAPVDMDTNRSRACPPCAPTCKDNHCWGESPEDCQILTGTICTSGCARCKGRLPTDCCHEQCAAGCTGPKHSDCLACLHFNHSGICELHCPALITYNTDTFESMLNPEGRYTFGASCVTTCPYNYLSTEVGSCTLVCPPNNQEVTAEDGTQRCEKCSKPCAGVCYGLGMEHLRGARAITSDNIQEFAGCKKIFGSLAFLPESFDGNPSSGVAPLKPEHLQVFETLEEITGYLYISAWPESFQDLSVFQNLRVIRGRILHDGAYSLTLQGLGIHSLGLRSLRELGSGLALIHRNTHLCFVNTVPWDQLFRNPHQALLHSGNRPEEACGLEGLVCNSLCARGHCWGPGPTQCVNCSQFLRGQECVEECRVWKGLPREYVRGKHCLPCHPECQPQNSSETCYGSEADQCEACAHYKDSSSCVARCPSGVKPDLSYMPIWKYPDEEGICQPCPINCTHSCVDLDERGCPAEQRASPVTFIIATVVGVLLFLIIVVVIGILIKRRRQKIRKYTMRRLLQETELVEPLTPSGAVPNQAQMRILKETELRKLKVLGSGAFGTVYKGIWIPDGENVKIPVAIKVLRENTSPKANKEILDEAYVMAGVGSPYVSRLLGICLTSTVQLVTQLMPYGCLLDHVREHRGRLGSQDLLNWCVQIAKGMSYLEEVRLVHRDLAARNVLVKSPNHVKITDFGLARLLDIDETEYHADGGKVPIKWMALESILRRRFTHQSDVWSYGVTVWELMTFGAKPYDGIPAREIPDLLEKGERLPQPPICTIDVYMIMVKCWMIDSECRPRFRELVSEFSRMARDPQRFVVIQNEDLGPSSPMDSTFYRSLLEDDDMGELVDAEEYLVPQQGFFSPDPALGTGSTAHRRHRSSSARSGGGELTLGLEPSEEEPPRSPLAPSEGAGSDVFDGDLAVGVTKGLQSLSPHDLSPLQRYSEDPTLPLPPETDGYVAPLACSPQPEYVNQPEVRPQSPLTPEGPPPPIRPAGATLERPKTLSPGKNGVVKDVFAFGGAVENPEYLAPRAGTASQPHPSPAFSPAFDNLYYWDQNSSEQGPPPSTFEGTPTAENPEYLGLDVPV

HER2 = HER2 (Homo sapiens, UniProt P04626); assay: Capture ELISA binding specificity / species cross-reactivity; parameters: recombinant extracellular domain proteins: human EGFR, human HER2, human HER3, human HER4, mouse Her2, or cynomolgus monkey Her2; conditions: recombinant extracellular domain protein
Source text: (§1) To determine whether 39S retains the binding specificity and species cross-reactivity of its parental antibody AZ1.39.1, binding of 39S to the receptors of human ErbB family (EGFR, HER2, HER3, and HER4), the mouse Her2, and the cynomolgus monkey Her2 was examined by capture ELISA. Briefly, 96-well plates were coated with one of the following recombinant extracellular domain proteins: human EGFR, human HER2, human HER3, human HER4, mouse Her2, or cynomolgus monkey Her2. Antibody to be tested was prepared by diluting in a stepwise 1:3 serial dilution ranging from 50 nM down to 0.28 pM and then added to the wells in duplicate. After one hour of incubation, plates were washed, and goat anti-human IgG Fab HRP-conjugated secondary antibody was added to each well and the plates were incubated for 1 hour. The plates were washed and TMB substrate was added and incubated for 5-20 min to allow color development. The stop solution was added to the wells at the end of reaction and the plates were read at 450 nm. Binding signal (absorbance at 450 nm) was plotted against antibody concentration using Prism software.
(§2) Binding specificity and species cross-reactivity of bispecific antibodies to the recombinant extracellular domain protein of human EGFR, human HER2, human HER3, human HER4, mouse Her2, or cynomolgus monkey Her2 were determined by capture ELISA as described in Example 1. […]

mouse Her2 [2] = biological target: T1, mouse Her2; assay: as above; parameters: recombinant extracellular domain proteins: human EGFR, human HER2, human HER3, human HER4, mouse Her2, or cynomolgus monkey Her2; conditions: recombinant extracellular domain protein
Source text: as §1, §2
Target sequence in this assay (P70424 23-653 limits assumed): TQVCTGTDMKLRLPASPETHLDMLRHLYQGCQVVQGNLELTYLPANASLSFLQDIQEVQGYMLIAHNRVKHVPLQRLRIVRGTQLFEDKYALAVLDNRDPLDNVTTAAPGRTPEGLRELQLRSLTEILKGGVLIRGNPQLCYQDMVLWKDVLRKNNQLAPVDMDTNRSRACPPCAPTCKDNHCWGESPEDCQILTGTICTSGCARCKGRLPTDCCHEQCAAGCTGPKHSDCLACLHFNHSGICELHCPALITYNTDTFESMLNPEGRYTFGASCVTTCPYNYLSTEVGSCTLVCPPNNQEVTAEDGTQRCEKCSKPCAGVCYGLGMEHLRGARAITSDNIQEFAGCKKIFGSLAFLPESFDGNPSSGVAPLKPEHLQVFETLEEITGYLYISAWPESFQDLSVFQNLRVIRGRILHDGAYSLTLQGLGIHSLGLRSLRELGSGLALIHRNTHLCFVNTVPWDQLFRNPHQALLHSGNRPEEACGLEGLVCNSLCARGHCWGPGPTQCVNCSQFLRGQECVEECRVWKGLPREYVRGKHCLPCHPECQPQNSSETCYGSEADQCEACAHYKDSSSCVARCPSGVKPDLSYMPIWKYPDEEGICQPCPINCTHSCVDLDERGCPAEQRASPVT

T-DM1 [reference compound]
EC50 (SKBR-3): 82.6 pM
EC50 (SKOV-3): 116 pM
In vitro potency (EC50 in pM) (MDA-MB-468): Inactive
in vivo activity (tumor growth) (MDA-MB-361 model): limited activity
in vivo activity (tumor growth) (JIMT-1 model): no activity

B1: 39S: lead optimized monoclonal antibody derived from the 1.39.1 antibody; VH SEQ ID NO:15, VL SEQ ID NO:16 (antibody, V domains shown)
VH: EVQLVESGGGLVKPGGSLRLSCAASGFTFSSYSMSWVRQAPGKGLEWVSSISSSSSYIYYADSVKGRFTISRDNAKNSLYLQMNSLRAEDTAVYYCARGGDAYNYYYFDYWGQGTLVTVSS
VL: DIVMTQTPLSLSVTPGQPASISCKSSQSVFFRSNNKNILAWYLQKPGQPPQLLIYWASSRESGVPDRFSGSGSGTDFTLKISRVEAEDVGVYYCQQYFGSPFTFGPGTKVDIK
The binding affinity of 39S (KD) (mouse Her2 [1]): No
binding by capture ELISA (HER2): can bind
binding by capture ELISA (mouse Her2 [2]): not
